Results taken from article PMC7033309, “π-Helix controls activity of oxygen-sensing diguanylate cyclases” (Bioscience Reports, 2020).

What was measured:
PccGCS [1] = target: T1, PccGCS (Pectobacterium carotovorum, UniProt C6D9C2, H237A/K238A); assay: EnzChek pyrophosphate diguanylate cyclase turnover assay with purified protein, […] GTP; type: biochemical
T1 construct: gene PC1_2619; full-length PccGCS H237A/K238A (His-tagged)
T1 sequence (C6D9C2 1-471 H237A/K238A): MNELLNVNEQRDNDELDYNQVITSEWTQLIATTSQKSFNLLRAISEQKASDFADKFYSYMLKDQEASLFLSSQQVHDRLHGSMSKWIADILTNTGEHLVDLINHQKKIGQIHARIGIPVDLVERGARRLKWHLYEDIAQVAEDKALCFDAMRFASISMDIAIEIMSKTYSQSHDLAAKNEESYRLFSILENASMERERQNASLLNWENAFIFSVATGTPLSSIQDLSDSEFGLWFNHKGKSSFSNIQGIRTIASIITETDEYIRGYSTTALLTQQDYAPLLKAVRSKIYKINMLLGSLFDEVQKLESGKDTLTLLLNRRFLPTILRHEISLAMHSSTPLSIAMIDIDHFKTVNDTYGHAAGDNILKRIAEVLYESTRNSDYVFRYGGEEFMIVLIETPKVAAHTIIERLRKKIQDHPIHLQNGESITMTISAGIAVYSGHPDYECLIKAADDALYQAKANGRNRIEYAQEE

PccGCS [2] = target: T2, PccGCS (Pectobacterium carotovorum, UniProt C6D9C2); assay: as above; type: biochemical
T2 construct: gene PC1_2619; full-length PccGCS WT (His-tagged)

## Nc1nc2c(ncn2[C@@H]2O[C@H](COP(=O)(O)OP(=O)(O)OP(=O)(O)O)[C@@H](O)[C@H]2O)c(=O)[nH]1 [GTP]
PccGCS [1]
  EnzChek pyrophosphate diguanylate cyclase turnover assay with purified protein,: 0.0227 min⁻¹
PccGCS [2]
  EnzChek pyrophosphate diguanylate cyclase turnover assay with purified protein,: 0.759 min⁻¹
